Test results taken from patent US12331121B2, “Efflux pump-cancer antigen multi-specific antibodies and compositions, reagents, kits and methods related thereto” (William Robert Arathoon Living Trust Dated August 29, 2016, priority 2019, dated 2025).

Experiments:
Assay type in all cases: in vivo
A2780ADR cells = assay: A2780ADR subcutaneous tumors in mice
Description: A2780ADR MDR cancer cell line and HeyT30 MDR cancer cell line were injected into mice according to protocols described in Example 3. Mice were treated with BisP1.1 bispecific antibody with or without paclitaxel.
Cells: A2780ADR cell line (Sigma, catalogue no 93112520) is an epithelial ovarian carcinoma, derived from parent A2780 cell line (Sigma, catalogue no 93112519), was used in this study.
Mice: 5-6-weeks-old female nude mice (Charles River) were used in this study.
(§1) All animal maintenance, handling, surveillance, and animal procedures were performed in accordance with and approval from the APLAC protocol.
(§2) A2780ADR subcutaneous tumors: Mice were randomized into six groups of five mice each—(i) Control isotype IgG1 3 mg/kg, (ii) Control isotype IgG1 3 mg/kg and 20 mg/kg of paclitaxel, (iii) KNJYBisP1.1 3 mg/kg, (iv) KNJYBisP1.1 3 mg/kg and 20 mg/kg of paclitaxel, (v) KNJYBisP1.1 N297A 3 mg/kg and (vi) KNJYBisP1.1 N297A 3 mg/kg and 20 mg/kg of paclitaxel. Antibody and paclitaxel were dosed intraperitoneally twice a week for two consecutive weeks.
A2780ADR subcutaneous tumors: Once tumors reached 100-150 mm^3, mice were randomized into ten groups of five mice each—(i) Control isotype IgG1 3 mg/kg, (ii) Control isotype IgG1 3 mg/kg and 20 mg/kg of paclitaxel, (iii) KNJYBisP1.1 3 mg/kg, (iv) KNJYBisP1.1 3 mg/kg and 20 mg/kg of paclitaxel, (v) 15D3 hybridoma monoclonal Ab 3 mg/kg, (vi) 15D3 hybridoma 3 mg/kg and 20 mg/kg of paclitaxel, (vii) KT14/KT14 monoclonal Ab 3 mg/kg, (viii) KT14/KT14 monoclonal Ab 3 mg/kg and 20 mg/kg of paclitaxel, (ix) 15D3 hybridoma+KT14/KT14, 1.5 mg each and (x) 15D3 hybridoma+KT14/KT14, 1.5 mg each and 20 mg/kg of paclitaxel. Antibodies and paclitaxel were dosed intraperitoneally twice a week for two consecutive weeks.

MES-SA/Dx5 cells = assay: MES-SA/Dx5 subcutaneous tumors in nude mice
Description: Cells: MES-SA/Dx5 cell line (Sigma, catalogue no 95051031) is a uterine sarcoma, derived from parent MES-SA cell line (Sigma, catalogue no 95051030), was used in this study.
Mice: 5-6-week-old female nude mice (Charles River) were used in this study.
as §1
as §2, with “MES-SA/Dx5” for “A2780ADR”, “Once tumors reached 100-150 mm^3, mice” for “Mice”, “LALAPG” for “N297A”, “weeks. […]” for “weeks.”

[1] = system: multidrug resistant N6ADR cells; assay: N6ADR tumor volume in mice (Example 2, FIG. 9); conditions: antibody on day 0, 4, 7, 11; no chemotherapeutic agent
Description: N6ADR cells were injected into a cohort of 6 mice per test group prior to administration of the indicated antibodies. The antibodies were administered once palpable tumors reached a size of about 100-150 mm^3 (about 7 days after injection of tumor cells). Antibodies were administered on day 0, day 4, day 7, and day 11. Tumor volumes were measured and are plotted. Panel A: 15D3/MRK16 monoclonal anti-MDR1 antibody. Panel B: KT14/MRK16 monoclonal anti-CD47 antibody. Panel C: Co-administration of 15D3/MRK16 monoclonal anti-MDR1 antibody and KT14/MRK16 monoclonal anti-CD47 antibody. Panel D: KbisP1.1 antibody.
The indicated antibodies were administered with or without the chemotherapeutic agent paclitaxel. Antibody was dosed about 1-4 hrs prior to Paclitaxel.

[2] = antibody 3 mg/kg, paclitaxel 20 mg/kg

Substance: KBisP1.1: bispecific anti-MDR1/anti-CD47 antibody: 15D3 heavy chain, 5F9 (KT14) heavy chain, common MRK16 light chain, human IgG1
- chemosensitizing effect compared with monospecific antibodies (A2780ADR cells; 3 mg/kg with paclitaxel 20 mg/kg, FIG. 28): stronger compared to either the anti-MDR1 15D3 hybridoma antibody or anti-CD47 KT14 monoclonal antibody
- tumor volume (A2780ADR cells; Example 4, with or without paclitaxel, FIG. 18): efficacious in reducing A2780ADR MDR cancer cell tumor volume with or without paclitaxel
- chemosensitization of A2780ADR tumors to paclitaxel (A2780ADR cells; [2]): chemosensitizes
- chemosensitizing effect compared with monospecific antibodies (MES-SA/Dx5 cells; 3 mg/kg with paclitaxel 20 mg/kg, FIG. 29): stronger than either the 15D3 hybridoma or KT14 monoclonal antibodies
- chemosensitization of MES-SA/Dx5 tumors to paclitaxel (MES-SA/Dx5 cells; [2]): chemosensitizes
- effect on tumor volume without paclitaxel [1]: more efficacious than the co-administration
